Data as given in PMC9256654, “Mechanistic basis for maintenance of CHG DNA methylation in plants” (Nature Communications, 2022).

Molecular target: T1, CMT3 (Arabidopsis thaliana, UniProt Q94F88)
T1 construct: residues 42-839; N-terminal His6-SUMO tag removed by ULP1; E. coli BL21(DE3) RIL
T1 sequence (Q94F88 42-839): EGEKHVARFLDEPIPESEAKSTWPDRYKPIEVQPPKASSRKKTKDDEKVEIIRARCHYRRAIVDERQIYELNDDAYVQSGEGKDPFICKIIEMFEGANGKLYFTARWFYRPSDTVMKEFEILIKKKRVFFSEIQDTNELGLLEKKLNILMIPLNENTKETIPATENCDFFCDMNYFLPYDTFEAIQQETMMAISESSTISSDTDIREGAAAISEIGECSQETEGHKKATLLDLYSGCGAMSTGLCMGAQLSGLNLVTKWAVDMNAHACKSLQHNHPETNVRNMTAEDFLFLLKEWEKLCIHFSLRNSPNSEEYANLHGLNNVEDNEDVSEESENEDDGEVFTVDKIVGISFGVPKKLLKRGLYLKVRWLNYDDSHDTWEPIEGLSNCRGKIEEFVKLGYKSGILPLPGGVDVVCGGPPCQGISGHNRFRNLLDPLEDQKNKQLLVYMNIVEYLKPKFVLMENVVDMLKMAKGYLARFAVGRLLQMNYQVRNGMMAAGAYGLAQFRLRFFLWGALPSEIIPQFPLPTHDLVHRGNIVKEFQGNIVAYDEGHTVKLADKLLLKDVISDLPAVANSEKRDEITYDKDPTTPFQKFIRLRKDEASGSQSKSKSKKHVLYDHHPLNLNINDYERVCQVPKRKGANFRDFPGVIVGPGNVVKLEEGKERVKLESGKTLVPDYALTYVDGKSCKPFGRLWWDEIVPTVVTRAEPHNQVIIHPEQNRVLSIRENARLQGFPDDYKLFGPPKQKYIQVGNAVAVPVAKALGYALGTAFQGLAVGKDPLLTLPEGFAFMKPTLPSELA
Assay: radiometric DNA methylation assay (3H-methyl transfer, nylon membrane)
Type: biochemical
Settings: labelled compound; 0.56 uM [3H]SAM plus 1.96 uM SAM; 4.0 uM DNA; 4.0 uM histone peptide; no added NaCl; pH 8.0, 37 C, 1 h

For `C[S+](CC[C@H](N)C(=O)O)C[C@H]1O[C@@H](n2cnc3c(N)ncnc32)[C@H](O)[C@@H]1O` (stereo partly drawn) [SAM, S-adenosyl-L-methionine], the “radiometric DNA methylation assay (3H-methyl transfer, nylon membrane)” value was “All the rest of the reaction conditions for CMT3 were the same as those for ZMET2”.
